Measured values reported in patent publication US20200255828A1, “METHODS AND COMPOSITIONS FOR ALTERING FUNCTION AND STRUCTURE OF CHROMATIN LOOPS AND/OR DOMAINS” (THE BROAD INSTITUTE, INC., priority 2017, published 2020).

Assays:
CTCF = assay: ChIP-Seq for CTCF with and without auxin; format: cell-based, human
Description: ChIP-Seq for H3K27Ac, H3K4me1, H3K4me3, H3K36me3, H3K27me3, H3K9me3, H4K16Ac, H4K20me3, H3K79me2, and H2.AZ was performed using a native ChIP-Seq protocol. Chromatin from untreated HCT-116 RAD21-mAC cells or cells treated for 6 hours with 500 uM IAA was digested with Mnase (Sigma) in digestion buffer (50 mM Tris-HCl, pH7.6, 1 mM CaCl2), 0.2% Triton X-100, butyrate 5 mM) for 5′ at 37° C. and dialyzed against RIPA buffer for 2 hrs at 4° C. Five microgram of respective antibody was incubated with 40 μl of Dynabeads Protein A (or G) for 40 min at room temperature. Antibody-bound beads were added to 500 μl of sonicated or Mnase-digested chromatin, incubated at 4° C. overnight, and washed twice with RIPA buffer, twice with RIPA buffer containing 0.3 M NaCl, twice with LiCl buffer (0.25 M LiCl, 0.5% Igepal-630, 0.5% sodium deoxycholate), once with TE (pH 8.0) plus 0.2% Triton X-100, and once with TE (pH 8.0). ChIP DNA was purified by phenol-chloroform extraction followed by ethanol precipitation. Libraries were prepped for Illumina sequencing and 50 bp single-end reads were sequenced on a HiSeq2000 or 2500 (Illumina). Applicants also performed ChIP-Seq for RAD21 and CTCF following the same protocol as above, except that cells were fixed with 1% formaldehyde for 10 minutes at 37° C. and fixation was quenched by the addition of glycine to a final concentration of 125 mM for 10 minutes. The fixed cells were sonicated using a Branson sonifier at amplitude 35%, 12 cycles of 20 seconds of sonication and 30 seconds of pause. Antibody was added to the sonicated chromatin as above and the samples were further processed as above. […]
All ChIP-Seq data was aligned to hg19 with BWA (Li and Durbin, 2010) (Li and Durbin, 2010) (Li and Durbin, 2010), deduplicated using PicardTools, and analyzed with MACS 2.0 (Liu, 2014). […]
Applicants calculated average signal over 5 kb bins across the entire genome and correlated signal between ChIP-Seq experiments before and after auxin treatment for each of CTCF, H3K27me3, H3K9me3, H3K4me1, H3K4me3 and H3K27Ac.

HCT-116 RAD21-mAC cells = assay: PRO-Seq nascent transcription after cohesin loss; format: cell-based, human
Source text: Finally, Applicants sought to investigate the role of cohesin in regulating gene expression. Cohesin has been proposed to facilitate interactions between enhancers and promoters (Kagey et al., 2010; Merkenschlager and Nora, 2016). Loop domains are thought to regulate this process by preventing enhancers from forming ectopic interactions with targets that lie in a different loop domain (Lupiáñez et al., 2015; Flavahan et al., 2016). Applicants therefore characterized the effects of cohesin loss on nascent transcription by performing precision nuclear run-on sequencing (PRO-Seq) in treated and untreated HCT116 cells (Engreitz et al., 2016; Jonkers and Lis, 2015) (FIG. 7A). Applicants chose an early timepoint—6 hours after auxin treatment—with the aim of examining direct consequences, rather than indirect effects due to changes in cell state.
To measure changes in transcription resulting from cohesin loss, Applicants performed precision run-on sequencing (PRO-Seq) (Jonkers and Lis, 2015), a variant of global run-on sequencing (GRO-Seq), using a single biotinylated nucleotide (biotin-11-CTP) as previously described (Engreitz et al., 2016). Applicants made one modifications to the protocol: at the end of each biotin enrichment, Applicants eluted biotinylated RNAs from the streptavidin-coated magnetic beads by heating beads in 25 μl of 20 mM Tris-HCl pH 7.5, 10 mM EDTA, 2% N-lauroylsarcosine at 95° C. for 5 minutes, followed by a magnetic-bead nucleic acid purification with 20 μl of MyONE SILANE beads. During the nuclei preparation step, Applicants processed pairs of RAD21-mAC cells with and without auxin treatment in parallel. In addition, Applicants performed PRO-Seq on HCT-116 CMV-OsTIR1 cells, the parental cell line of RAD21-mAC containing the OsTIR1 gene integrated at the AAVS1 locus and no mAID tags integrated on any protein. By performing PRO-Seq on CMV-OsTIR1 cells with and without auxin treatment, Applicants could control for transcriptional effects of the auxin treatment itself on HCT-116 cells, as well as any consequences of tagging the RAD21 protein.
For analysis of PRO-Seq data, Applicants aligned 30-bp paired-end reads to the hg19 reference (bowtie2 v2.1.0, (Langmead and Salzberg, 2012)), removed duplicate reads (Picard picard.sourceforge.net), and discarded reads with MAPQ <30. Applicants counted reads overlapping RefSeq genes (collapsed by gene symbol to the longest isoform)—this quantification procedure includes signal both at the paused position (near the TSS) as well as in the gene body. Applicants identified genes showing significant differences in transcription with DESeq2 (Love et al., 2014), excluding genes with zero coverage in all samples and calling significance at Benjamini-Hochberg corrected p-value <0.05.
To determine whether there were global changes in the total amount of transcription (up or down) that would affect the normalization and analysis of these experiments, Applicants included a spike-in control in three of the four PRO-Seq replicates for each of untreated and treated RAD21-mAC and CMV-OsTIR1 cells. Specifically, Applicants added ˜500,000 Drosophila S2 cells at the beginning of the protocol. Upon sequencing of these libraries, Applicants counted the number of spike-in reads by aligning to the Drosophila genome (dme13) with bowtie2 v2.1.0.
Assessment of changes in transcription after cohesin loss. […]

In the case of `O=C(O)Cc1c[nH]c2ccccc12` [auxin, indole-3-acetic acid], the “CTCF peaks called after auxin treatment also called before auxin treatment” value (CTCF) is reported as 96%, the “Spearman's r of ChIP-Seq signal before vs after auxin treatment, CTCF” value (CTCF; 5 kb bins genome-wide) is reported as 0.80 and the “average enrichment at all CTCF binding sites called by ENCODE, treated cells” value (CTCF; untreated 10.89) is reported as 8.93. For the same compound, the AKAP12 expression down-regulation (HCT-116 RAD21-mAC cells; upon auxin treatment) was 3.3 fold, the IER5L expression down-regulation (HCT-116 RAD21-mAC cells; upon auxin treatment) was 2.6 fold and the KITLG expression down-regulation (HCT-116 RAD21-mAC cells; upon auxin treatment) was 2.73 fold. The “number of genes 2-fold downregulated with p<0.05 after auxin treatment” value (HCT-116 RAD21-mAC cells; vs untreated HCT-116-CMV-OsTIR1 control) was 43 and the “number of genes 1.75-fold downregulated with p<0.05 after auxin treatment” value (HCT-116 RAD21-mAC cells; vs untreated RAD21-mAC cells) was 49.
